The test system of test [1] is Staphylococcus aureus. As to the kind of experiment: Antibacterial activity against Staphylococcus aureus ATCC 6538 after 24 hrs by resazurin dye based fluorescence assay. In kind it is functional. The following applies: ATCC 6538, 24 h.
In test [2] the test system is Staphylococcus aureus. As to the kind of experiment: Antibacterial activity against methicillin-resistant Staphylococcus aureus ATCC 43300 after 24 hrs by resazurin dye based fluorescence assay. The format is functional. The following applies: ATCC 43300, 24 h.
The subject of test [3] is Bacillus subtilis. As to the kind of experiment: Antibacterial activity against Bacillus subtilis ATCC 6051 after 24 hrs by resazurin dye based fluorescence assay. The following applies: ATCC 6051, 24 h. In kind it is functional. On the technique in general: The colour change of resazurin is a common sign of viable cells or microbes.
The subject of test [4] is Staphylococcus epidermidis. As to the kind of experiment: Antibacterial activity against Staphylococcus epidermidis ATCC 35984 after 24 hrs by resazurin dye based fluorescence assay. The format is functional. As to conditions: ATCC 35984, 24 h.
In test [5] the test system is Pseudomonas aeruginosa. The experiment in a line: Antibacterial activity against Pseudomonas aeruginosa ATCC 15442 after 24 hrs by resazurin dye based fluorescence assay. In kind it is functional. As to conditions: ATCC 15442, 24 h.
Test [6] has as its system Enterococcus faecium. The experiment in a line: Antibacterial activity against Enterococcus faecium ATCC […] after 24 hrs by resazurin dye based fluorescence assay. In kind it is functional.
Test [7] relates to MDCK. The experiment in a line: Cytotoxicity against MDCK cells assessed as reduction in cell viability after 72 hrs by MTT assay. The format is cell-based. As to conditions: Canis lupus familiaris. (In general: Tetrazolium dyes change colour on reduction, which living cells bring about.)

The structures appear in SMILES notation. pIC50: −log10 of the molar value. In brackets after ≈: the same amount, converted by molar mass. Some results are limits rather than exact numbers.

Regarding `O=C(c1cc(Cl)c(Cl)[nH]1)c1c(O)ccc(Cc2ccc(O)c(C(=O)c3cc(Cl)c(Cl)[nH]3)c2O)c1O`, the MIC in test [1] was 32 µg/mL (≈ 57.5 µM); in test [2], greater than 32 µg/mL; in test [3], 32 µg/mL (≈ 57.5 µM); in test [4], 32 µg/mL (≈ 57.5 µM); in test [5] it was greater than 32 µg/mL; in test [6], 32 µg/mL (≈ 57.5 µM). In addition, in test [7], the pIC50 is 4.36.
Take `O=C(c1cc(Cl)c(Cl)[nH]1)c1c(O)ccc(Cc2cc(C(c3csc(-c4ccccc4O)n3)c3ccc(O)c(C(=O)c4cc(Cl)c(Cl)[nH]4)c3O)c(O)c(C(=O)c3cc(Cl)c(Cl)[nH]3)c2O)c1O` (stereo not given): the MIC in test [1] was 4 µg/mL (≈ 3.94 µM); in test [2] it was 8 µg/mL (≈ 7.88 µM); in test [3], 8 µg/mL (≈ 7.88 µM); in test [4] it was 2 µg/mL (≈ 1.97 µM); in test [5] it was greater than 32 µg/mL; in test [6], greater than 32 µg/mL. Further, the negative logarithm of the IC50 (pIC50) in test [7] was 4.55.
With `O=C(c1cc(Cl)c(Cl)[nH]1)c1c(O)ccc(C(c2csc(-c3ccccc3O)n2)c2ccc(O)c(C(=O)c3cc(Cl)c(Cl)[nH]3)c2O)c1O`, the MIC in test [1] was determined as 4 µg/mL (≈ 5.47 µM); in test [2], 4 µg/mL (≈ 5.47 µM); in test [3] it was 4 µg/mL (≈ 5.47 µM); in test [4] it was 2 µg/mL (≈ 2.73 µM); in test [5], 8 µg/mL (≈ 10.9 µM); in test [6], 8 µg/mL (≈ 10.9 µM). For the same compound, the pIC50 in test [7] was 4.04.
The compound `O=C(N[C@H](CO)[C@H](O)c1ccc([N+](=O)[O-])cc1)C(Cl)Cl` [CHLORAMPHENICOL] had an MIC in test [6] of 8 µg/mL (≈ 24.8 µM).
For `CCn1cc(C(=O)O)c(=O)c2ccc(C)nc21` [NALIDIXIC ACID], the minimum inhibitory concentration (MIC) in test [5] amounted to 4 µg/mL (≈ 17.2 µM).
Regarding `Cc1onc(-c2ccccc2)c1C(=O)N[C@@H]1C(=O)N2[C@@H]1SC(C)(C)[C@@H]2C(=O)O` [OXACILLIN], the MIC in test [1] was 0.13 µg/mL (≈ 0.324 µM); in test [2] it was 8 µg/mL (≈ 19.9 µM); in test [3] it was 1 µg/mL (≈ 2.49 µM); in test [4], 2 µg/mL (≈ 4.98 µM); in test [6], greater than 32 µg/mL.
Consider `O=C(c1cc(Cl)c(Cl)[nH]1)c1c(O)cccc1O` [PYOLUTEORIN], for which the minimum inhibitory concentration (MIC) is 4 µg/mL (≈ 14.7 µM) in test [1]; 8 µg/mL (≈ 29.4 µM) in test [2]; 8 µg/mL (≈ 29.4 µM) in test [3]; 4 µg/mL (≈ 14.7 µM) in test [4]; 16 µg/mL (≈ 58.8 µM) in test [5]; 8 µg/mL (≈ 29.4 µM) in test [6]. Besides, the negative logarithm of the IC50 (pIC50) in test [7] was 5.32.

One may read the MIC as the lowest concentration that inhibits growth of the organism. Usually pIC50 stands for the negative decadic logarithm of the IC50, by convention in mol/L.

These data come from ChEMBL document CHEMBL4480423, “Mindapyrroles A-C, Pyoluteorin Analogues from a Shipworm-Associated Bacterium” (J Nat Prod, 2019).
